Patent US20240279218A1 (Hoffmann-La Roche Inc., priority 2016, published 2024)
Like-named read-outs stand apart in the source and are kept apart here.

Key:
h-GABA-A α5β3γ2 [1] = target: T1, h-GABA-A α5β3γ2 (Homo sapiens (Human), UniProt P18507+P31644); experiment: [3H]flumazenil competition binding assay, membranes of HEK293 cells expressing human GABAA receptors
Summary of the method: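 Membranes were prepared from HEK293 cells with transient human α5β3γ2 expression and assayed in Krebs-tris, pH 7.5. Bound radioactivity measured on filters by liquid scintillation.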

h-GABA-A α5β3γ2 [2] = target: T1, h-GABA-A α5β3γ2; experiment: Two-electrode voltage clamp electrophysiology in Xenopus oocytes expressing GABAA receptors, modulation of GABA EC20 current; format: cell-based
Summary of the method: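 Values are % modulation of an EC20 GABA response, derived point by point from the ratio of compound-exposed versus control current traces (extremum taken, 100×(fold−1)). Recordings used oocytes injected with human α5, β3, γ2 mRNA, clamped at −80 mV at room temperature, at least 3 oocytes each.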

[3] = displacement of [3H]flumazenil 0.5 nM, HEK293 cells expressing human receptors, mean of two determinations, read-out: Ki h-GABA-A α5β3γ2
[4] = % modulation of GABA EC20 = 100*(Fold increase−1), Xenopus oocytes
[5] = Xenopus oocytes, GABA EC20, test compound at approx. 30 fold its Ki

| Ki (h-GABA-A α5β3γ2 [1]; [3]) [nM] | Efficacy (GABA) % (h-GABA-A α5β3γ2 [2]; [4]) [%] | Fold increase h-GABA-A α5β3γ2 oocyte (h-GABA-A α5β3γ2 [2]; [5]) | SMILES | Ki (h-GABA-A α5β3γ2 [1]; reference compounds, GABAA receptor α5β3γ2, read-out: Ki α5-human) [nM] | Efficacy (GABA) % (h-GABA-A α5β3γ2 [2]; reference compounds, % modulation of GABA EC20) [%] | Fold increase h-GABA-A α5β3γ2 oocyte (h-GABA-A α5β3γ2 [2]; reference compounds, GABAA α5β3γ2 overexpressing oocytes, GABA EC20) |
| --- | --- | --- | --- | --- | --- | --- |
| 32.4 | 102 | 2.02 | Cc1ccc(-c2noc(CF)c2COc2ccc(C(=O)NC3CCOCC3)nn2)cn1 [Example 168, 6-((5-(fluoromethyl)-3-(6-methylpyridin-3-yl)isoxazol-4-yl)methoxy)-N-(tetrahydropyran-4-yl)pyridazine-3-carboxamide] |  |  |  |
| 18.9 | 66 | 1.66 | Cc1ccc(-c2noc(C)c2COc2ccc(C(=O)N[C@H]3C[C@@H](OCC(F)F)C3)nn2)cn1 [Example 169, cis-N-3-((2,2-difluoroethoxy)cyclobutyl)-6-((5-methyl-3-(6-methylpyridin-3-yl)isoxazol-4-yl)methoxy)pyridazine-3-carboxamide] |  |  |  |
| 8.8 | 60 | 1.6 | Cc1ccc(-c2noc(C)c2COc2ccc(C(=O)N[C@H]3C[C@H](OCC(F)F)C3)nn2)cn1 [Example 170, trans-N-3-((2,2-difluoroethoxy)cyclobutyl)-6-((5-methyl-3-(6-methylpyridin-3-yl)isoxazol-4-yl)methoxy)pyridazine-3-carboxamide] |  |  |  |
| 18.1 | 72 | 1.72 | CCO[C@H]1C[C@@H](NC(=O)c2ccc(OCc3c(-c4ccc(C)nc4)noc3C)nn2)C1 [Example 171, cis-N-(3-ethoxycyclobutyl)-6-((5-methyl-3-(6-methylpyridin-3-yl)isoxazol-4-yl)methoxy)pyridazine-3-carboxamide] |  |  |  |
| 8.8 | 65 | 1.65 | CCO[C@H]1C[C@H](NC(=O)c2ccc(OCc3c(-c4ccc(C)nc4)noc3C)nn2)C1 [Example 172, trans-N-(3-ethoxycyclobutyl)-6-((5-methyl-3-(6-methylpyridin-3-yl)isoxazol-4-yl)methoxy)pyridazine-3-carboxamide] |  |  |  |
| 15.6 | 68 | 1.68 | Cc1ccc(-c2noc(C)c2COc2ccc(C(=O)N[C@H]3C[C@@H](OC(F)F)C3)nn2)cn1 [Example 173, cis-N-(3-(difluoromethoxy)cyclobutyl)-6-((5-methyl-3-(6-methylpyridin-3-yl)isoxazol-4-yl)methoxy)pyridazine-3-carboxamide] |  |  |  |
| 8.8 | 55 | 1.55 | Cc1ccc(-c2noc(C)c2COc2ccc(C(=O)N[C@H]3C[C@H](OC(F)F)C3)nn2)cn1 [Example 174, trans-N-(3-(difluoromethoxy)cyclobutyl)-6-((5-methyl-3-(6-methylpyridin-3-yl)isoxazol-4-yl)methoxy)pyridazine-3-carboxamide] |  |  |  |
| 10.1 | 82 | 1.82 | Cc1ccc(-c2noc(C)c2COc2ccc(C(=O)N[C@H]3C[C@H](OC4CC4)C3)nn2)cn1 [Example 175, trans-N-(3-cyclopropoxycyclobutyl)-6-((5-methyl-3-(6-methylpyridin-3-yl)isoxazol-4-yl)methoxy)pyridazine-3-carboxamide] |  |  |  |
| 12.7 | 64 | 1.64 | Cc1ccc(-c2noc(C)c2COc2ccc(C(=O)N[C@H]3C[C@@H](OC4CC4)C3)nn2)cn1 [Example 176, cis-N-(3-cyclopropoxycyclobutyl)-6-((5-methyl-3-(6-methylpyridin-3-yl)isoxazol-4-yl)methoxy)pyridazine-3-carboxamide] |  |  |  |
| 39.7 | 109 | 2.09 | CC1(NC(=O)c2ccc(OCc3c(-c4ccc(Cl)nc4)noc3C3CC3)nn2)COC1 [Example 177] |  |  |  |
| 42.9 | 73 | 1.73 | O=C(NC1CC2(COC2)C1)c1ccc(OCc2c(-c3ccc(Cl)nc3)noc2C2CC2)nn1 [Example 178, 6-((3-(6-chloropyridin-3-yl)-5-cyclopropylisoxazol-4-yl)methoxy)-N-(2-oxaspiro[3.3]heptan-6-yl)pyridazine-3-carboxamide] |  |  |  |
| 32.6 | 173 | 2.73 | Cc1ccc(-c2noc(C3CC3)c2COc2ccc(C(=O)NC3(C)COC3)nn2)cn1 [Example 180] |  |  |  |
| 68 | 147 | 2.47 | Cc1ccc(-c2noc(C3CC3)c2COc2ccc(C(=O)NC3CC4(COC4)C3)nn2)cn1 [Example 181, 6-((5-cyclopropyl-3-(6-methylpyridin-3-yl)isoxazol-4-yl)methoxy)-N-(2-oxaspiro[3.3]heptan-6-yl)pyridazine-3-carboxamide] |  |  |  |
| 59.6 | 141 | 2.41 | Cc1ccc(-c2noc(C3CC3)c2COc2ccc(C(=O)N[C@H]3CCOC3)nn2)cn1 [Example 182] |  |  |  |
| 56.7 | 213 | 3.13 | Cc1ccc(-c2noc(C3CC3)c2COc2ccc(C(=O)NC3CCOCC3)nn2)cn1 [Example 183, 6-((5-cyclopropyl-3-(6-methylpyridin-3-yl)isoxazol-4-yl)methoxy)-N-(tetrahydropyran-4-yl)pyridazine-3-carboxamide] |  |  |  |
| 51.2 | 96 | 1.96 | Cc1ccc(-c2noc(CF)c2COc2ccc(C(=O)NC3(C(F)(F)F)CC3)nn2)cn1 [Example 184, 6-((5-(fluoromethyl)-3-(6-methylpyridin-3-yl)isoxazol-4-yl)methoxy)-N-(1-(trifluoromethyl)cyclopropyl)pyridazine-3-carboxamide] |  |  |  |
| 70.7 | 124 | 2.24 | Cc1onc(-c2ccc(C(F)(F)F)nc2)c1COc1ccc(C(=O)NC2CCOCC2)nn1 [Example 185, 6-((5-methyl-3-(6-(trifluoromethyl)pyridin-3-yl)isoxazol-4-yl)methoxy)-N-(tetrahydropyran-4-yl)pyridazine-3-carboxamide] |  |  |  |
| 16.6 | 72 | 1.72 | Cc1ccc(-c2noc(C)c2COc2ccc(C(=O)N[C@H]3CC4CCC3O4)nn2)cn1 (stereo partly drawn) [Example 186, N-((2S)-7-oxabicyclo[2.2.1]heptan-2-yl)-6-((5-methyl-3-(6-methylpyridin-3-yl)isoxazol-4-yl)methoxy)pyridazine-3-carboxamide] |  |  |  |
| 12.7 | 63 | 1.63 | CCO[C@@H]1CC[C@@H](NC(=O)c2ccc(OCc3c(-c4ccc(C)nc4)noc3C)nn2)C1 [Example 190, N-((1R,3R)-3-ethoxycyclopentyl)-6-((5-methyl-3-(6-methylpyridin-3-yl)isoxazol-4-yl)methoxy)pyridazine-3-carboxamide] |  |  |  |
| 11.2 | 60 | 1.6 | Cc1ccc(-c2noc(C)c2COc2ccc(C(=O)N[C@@H]3CC[C@@H](OCC(F)F)C3)nn2)cn1 [Example 191, N-((1R,3R)-3-(2,2-difluoroethoxy)cyclopentyl)-6-((5-methyl-3-(6-methylpyridin-3-yl)isoxazol-4-yl)methoxy)pyridazine-3-carboxamide] |  |  |  |
| 3 | 56 | 1.56 | Cc1ccc(-c2noc(CF)c2COc2ccc(C(=O)NC3CCOCC3)nn2)nn1 [Example 192, 6-((5-(fluoromethyl)-3-(6-methylpyridazin-3-yl)isoxazol-4-yl)methoxy)-N-(tetrahydropyran-4-yl)pyridazine-3-carboxamide] |  |  |  |
| 1 | 64 | 1.64 | Cc1ccc(-c2noc(C)c2COc2ccc(C(=O)NC3CCOCC3)nn2)nn1 [Example 193, 6-((5-methyl-3-(6-methylpyridazin-3-yl)isoxazol-4-yl)methoxy)-N-(tetrahydropyran-4-yl)pyridazine-3-carboxamide] |  |  |  |
| 13.3 | 84 | 1.84 | Cc1ccc(-c2noc(C)c2COc2ccc(C(=O)N[C@H]3CC[C@H](OCC(F)F)CC3)nn2)cn1 [Example 194, trans-N-(4-(2,2-difluoroethoxy)cyclohexyl)-6-((5-methyl-3-(6-methylpyridin-3-yl)-1,2-oxazol-4-yl)methoxy)pyridazine-3-carboxamide] |  |  |  |
| 17.3 | 78 | 1.78 | CCO[C@H]1CC[C@H](NC(=O)c2ccc(OCc3c(-c4ccc(C)nc4)noc3C)nn2)CC1 [Example 195, N-(4-ethoxycyclohexyl)-6-((5-methyl-3-(6-methylpyridin-3-yl)-1,2-oxazol-4-yl)methoxy)pyridazine-3-carboxamide] |  |  |  |
|  |  |  | Cc1onc(-c2cccnc2)c1COc1ccc(C(=O)NC2CCOCC2)nn1 [RE-A, 6-((5-methyl-3-(3-pyridyl)isoxazol-4-yl)methoxy)-N-tetrahydropyran-4-yl-pyridazine-3-carboxamide, reference compound] | 65 | −3 | 0.97 |
